Measured values as given in ChEMBL document CHEMBL1150984, “2,4,5- triarylimidazole inhibitors of IL-1 biosynthesis” (Bioorg Med Chem Lett, 1995).

Biological target: T1, Polyunsaturated fatty acid 5-lipoxygenase (Rattus norvegicus, UniProt P12527)
T1 sequence (P12527 whole entry): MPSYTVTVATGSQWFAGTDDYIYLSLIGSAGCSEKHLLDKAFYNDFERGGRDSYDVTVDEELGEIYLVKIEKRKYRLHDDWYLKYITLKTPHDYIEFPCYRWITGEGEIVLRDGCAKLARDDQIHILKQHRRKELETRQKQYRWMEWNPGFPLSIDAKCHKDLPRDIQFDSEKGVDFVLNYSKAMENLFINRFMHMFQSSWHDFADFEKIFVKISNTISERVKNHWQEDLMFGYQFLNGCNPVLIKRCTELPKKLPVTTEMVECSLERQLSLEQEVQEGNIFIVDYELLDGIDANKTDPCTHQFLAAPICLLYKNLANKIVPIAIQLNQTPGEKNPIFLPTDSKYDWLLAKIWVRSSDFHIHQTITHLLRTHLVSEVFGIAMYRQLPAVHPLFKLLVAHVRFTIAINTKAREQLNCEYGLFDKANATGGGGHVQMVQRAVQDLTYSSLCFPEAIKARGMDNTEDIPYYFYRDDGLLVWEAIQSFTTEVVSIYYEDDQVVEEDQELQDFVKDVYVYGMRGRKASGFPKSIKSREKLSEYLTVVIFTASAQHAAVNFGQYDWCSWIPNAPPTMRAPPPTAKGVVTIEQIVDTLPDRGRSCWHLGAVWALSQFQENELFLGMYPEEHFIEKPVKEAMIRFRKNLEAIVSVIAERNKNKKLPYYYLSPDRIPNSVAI
Assay: biochemical
Assay type: cell-based, RBL-1
Description: Inhibitory activity against 5-lipoxygenase enzyme from RBL-1 cells

IC50 [µM]	SMILES
3.8	N#CN=C(N)Cc1ccc(-c2nc(-c3ccncc3)c(-c3ccc(F)cc3)[nH]2)cc1
0.8	CN(Cc1ccccc1)Cc1ccc(-c2nc(-c3ccncc3)c(-c3ccc(F)cc3)[nH]2)cc1
4.1	Oc1ccccc1-c1nc(-c2ccc(F)cc2)c(-c2ccncc2)[nH]1
5.6	CN(C)c1ccc(-c2nc(-c3ccc(F)cc3)c(-c3ccncc3)[nH]2)cc1
7.2	C[S+]([O-])c1ccc(-c2nc(-c3ccc(F)cc3)c(-c3ccnc4ccccc34)[nH]2)cc1 (stereo unspecified)
7.2	CC1(C)NC(c2ccc(-c3nc(-c4ccc(F)cc4)c(-c4ccncc4)[nH]3)cc2)=NO1
